These are literature values, as cited in patent US8263648B2, “Diebenzofuran derivatives as inhibitors of PDE-4 and PDE-10” (Mylan Laboratories Ltd., priority 2006, dated 2012).

As usually defined, the Km is the substrate concentration at which the rate is half of its maximum.

For series [1], the target named is PDE10A1 (Homo sapiens, UniProt Q9Y233). Particulars: substrate of PDE10A1, a splice variant of PDE10.
For series [2] the following is noted: oral dosages of up to 100 mg/kg.

PDE10A1, sequence (Q9Y233 1-779 isoform Q9Y233-1): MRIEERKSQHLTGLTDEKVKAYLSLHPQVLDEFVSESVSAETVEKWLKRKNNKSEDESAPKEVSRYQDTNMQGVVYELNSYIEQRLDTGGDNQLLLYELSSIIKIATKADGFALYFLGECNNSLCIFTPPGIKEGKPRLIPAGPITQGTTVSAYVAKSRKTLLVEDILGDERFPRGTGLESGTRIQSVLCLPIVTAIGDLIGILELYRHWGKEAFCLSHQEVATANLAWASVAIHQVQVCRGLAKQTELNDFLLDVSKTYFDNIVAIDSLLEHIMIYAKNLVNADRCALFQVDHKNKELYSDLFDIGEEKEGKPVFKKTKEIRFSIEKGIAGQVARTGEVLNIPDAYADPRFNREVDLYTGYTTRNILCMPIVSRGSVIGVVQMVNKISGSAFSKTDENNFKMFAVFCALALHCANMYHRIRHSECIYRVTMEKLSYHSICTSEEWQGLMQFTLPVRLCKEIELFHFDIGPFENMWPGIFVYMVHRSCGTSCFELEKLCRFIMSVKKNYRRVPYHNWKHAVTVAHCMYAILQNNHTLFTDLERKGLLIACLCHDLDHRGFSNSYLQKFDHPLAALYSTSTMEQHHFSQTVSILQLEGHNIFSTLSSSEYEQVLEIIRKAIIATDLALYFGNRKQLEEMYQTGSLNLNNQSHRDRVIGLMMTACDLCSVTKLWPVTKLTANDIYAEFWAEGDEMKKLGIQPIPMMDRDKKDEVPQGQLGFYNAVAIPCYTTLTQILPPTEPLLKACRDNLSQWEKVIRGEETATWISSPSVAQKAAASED

In the case of `Nc1nc2c(ncn2[C@@H]2O[C@@H]3COP(=O)(O)O[C@H]3[C@H]2O)c(=O)[nH]1` [cGMP], the Michaelis constant (Km) in series [1] is 3 µM.

As to `CS(=O)(=O)Nc1ccc2oc3c(OC(F)F)ccc(C(=O)Nc4c(Cl)cncc4Cl)c3c2c1` [GRC3886], the emetic effect result in series [2] is on record as “no emetic effect”.
